Columns and labels:
murine cancer models = conditions: systemic administration; cited from earlier work
[1] = tested on: macrophage-differentiated THP-1 cells; conditions: background statement; cited from earlier work
[2] = tested on: macrophage-differentiated THP-1 cells; conditions: background statement; cited from earlier work; remark: listed apart in the source
RAW264.7 cells = experiment: Cytokine release from RAW264.7 cells, multiplex cytometric bead array; format: cell-based, murine; conditions: 24 hours after treatment
Description: Talabostat mesylate (MedChemExpress; TLBST) was reconstituted to 10 mg/mL in deionized water and stored frozen. Prior to use, TLBST was thawed, incubated at 37° C. for 20 mins, and sonicated for 10 minutes. TLBST was serially diluted in pH 7.4, 40 mM Tris, 10 mM MgCl2 buffer to 5 mg/mL and 2.5 mg/mL. Free talabostat controls were prepared in triplicate by diluting and serially diluting the 10, 5, and 2.5 mg/mL TLBST stock in pH 7.4, 40 mM Tris-HCl, 10 mM MgCl2 buffer to generate free TLBST at 1.25, 0.625, and 0.3125 mg/mL. […]
RAW264.7 cells were seeded at 100,000 cells per well of a 96-well plate. […] Twenty-four hours following stimulation, cell culture supernatants were harvested and stored frozen until quantification of lactate dehydrogenase (LDH) by colorimetric enzymatic activity assay, and interleukin 1β (IL-1β), interleukin 18 (IL-18), and interferon β (IFNβ) by multiplex cytometric bead array assay. Percentage LDH release was calculated relative to the maximum LDH released from a lysed cells control. […] MTT signal derived from stimulated cells was quantified by colorimetric enzymatic activity assay. Percentage viability was calculated relative to the MTT signal measured in an untreated cells control. […]

Talabostat mesylate [Free TLBST]
protection in murine cancer models (murine cancer models): potent T and NK cell-dependent protection
cytotoxicity [1]: exhibit both cytotoxicity and IL-1β release
IL-1β release [2]: exhibit both cytotoxicity and IL-1β release
IFNβ in the supernatant (RAW264.7 cells): but not free TLBST is associated with IFNβ secretion
